Key:
cancer patients = test: Test Example 4: correlation between vaccination with individual peptides (or peptide sets) and OS, Cox proportional hazards regression; format: in vivo, human; conditions: for HR: Cox proportional hazards regression, OS; for Correlation between immune responses and OS: Negative (mOS) / Correlation between immune responses and OS: Positive (mOS): Table 20, <64% neutrophil and ≥26% lymphocyte; for Correlation between immune responses and OS: Negative (mOS): vaccinated patients with negative IgG response; for Correlation between immune responses and OS: Positive (mOS): vaccinated patients with positive IgG response
Description: The Student's t-test and the chi-square test were used to compare quantitative and categorical variables, respectively. OS was calculated as the time in months from the date of clinical trial enrollment to death or to the date of last contact. Time-to-event endpoints were analyzed using the Kaplan-Meier method, and between-group comparison for OS was conducted using the log-rank test. Clinical efficacy of the individual peptides for OS was evaluated by univariate and multivariate analyses with the Cox proportional hazards regression model, and HR and 95% CI were calculated. All reported p-values were two-sided, and p-values less than 0.05 were considered significant. JMP version 12 or SAS version 9.4 software (SAS Institute Inc., Cary, N.C.) was used to perform all analyses.
Correlation levels of the 31 peptides for OS were evaluated by the Cox proportional hazards regression model.
Similarly, in the 2,085 advanced cancer patients (stage IV+recurrence) and the 503 non-advanced cancer patients (I-III stages) correlation levels of the 31 peptides for OS were evaluated by the Cox proportional hazards regression model. […]

[1] = test system: anti-peptide IgG in plasma; test: Test Example 4: peptide-specific IgG titer pre and post vaccination, bead-based multiplexed Luminex assay; format: in vivo, human; conditions: for Pre-vaccination IgG Negative (number of patients) / Pre-vaccination IgG Positive (number of patients): cut off 10 FIU; for Post vaccination IgG: number of (positive) patients among vaccinated: positive IgG response; for Pre-vaccination IgG Negative patients: number of 2,588 patients below 10 FIU; for Pre-vaccination IgG Positive patients: number of 2,588 patients with ≥10 FIU; for Post vaccination IgG: (positive) patients: number of vaccinated patients with positive IgG response; for Correlation between immune responses and OS: Negative (mOS): patients with negative post-vaccination IgG response to the peptide; for Correlation between immune responses and OS: Positive (mOS): patients with positive post-vaccination IgG response to the peptide
Description: As described previously, IgG titer specific to the antigen peptides in plasma was measured by bead-based multiplexed Luminex assay (Luminex, Austin, Tex.) before and after vaccination, i.e., at the end of each cycle or at the end of the clinical trial (Non-Patent Literature 4). In brief, 30 mL of peripheral blood was obtained before and after vaccination. Plasma was incubated with 100 μL of peptide-coupled color-coded beads for 2 hours at 25° C. on a plate shaker. After the incubation, the resultant mixture was washed with a vacuum manifold apparatus and incubated with 100 μL of biotinylated goat anti-human IgG (gamma chain-specific; Vector Laboratories, Burlingame, Calif.) for 1 hour at 25° C. on a plate shaker. The plate was then washed, followed by addition of 100 μL of streptavidin-PE (Life Technologies) to each well, and incubation for 30 minutes at 25° C. on a plate shaker. The resultant beads were washed 4 times, followed by addition of 100 μL of Tween-PBS to each well, and detection of fluorescence intensity units (FIU) on the beads using the Luminex system. The cutoff values of anti-peptide IgG were set to 10 FIU in 100-fold diluted samples.
Pre-vaccination peptide-specific IgG titers to 31 peptides were measured using a Luminex system. As a detectable IgG level, 10 FIU was employed as the cut off level, as reported previously (Noguchi M, et al., Cancer Immunol Immunother. 2013 May; 62(5): 919-29; Sasada T, et al., Current Medicinal Chemistry. 21: 2332-2345, 2014; Kibe S, et al., Cancer Immunology Research 2014; 2(12): 1154-62).
Post-vaccination lgG titers were measured at the ends of the first cycle and the second cycle.

[2] = Table 18, all 2,588 cases, vaccinated vs non-vaccinated
[3] = Table 18, all 2,588 cases, median OS of patients under PPV containing the peptide
[4] = Table 18, all 2,588 cases, median OS of patients under PPV not containing the peptide
[5] = Table 19, 2,085 advanced cancer patients (stage IV+recurrence)
[6] = Table 19, 2,085 advanced cancer patients (stage IV+recurrence), PPV containing the peptide
[7] = Table 19, 2,085 advanced cancer patients (stage IV+recurrence), PPV not containing the peptide
[8] = Table 21, patients showing both <64% neutrophil and ≥26% lymphocyte
[9] = Table 21, patients showing both <64% neutrophil and ≥26% lymphocyte, PPV containing the peptide
[10] = Table 21, patients showing both <64% neutrophil and ≥26% lymphocyte, PPV not containing the peptide
[11] = Table 20, patients showing both <64% neutrophil and ≥26% lymphocyte
[12] = patients showing detectable levels
[13] = patients showing positive responses
[14] = 2,085 advanced cancer patients (stage IV+recurrence)

Sequence | HR (cancer patients; [2]) | Vaccinate cases (mOS) (cancer patients; [3]) | Non-vaccinate cases (mOS) (cancer patients; [4]) | HR (cancer patients; [5]) | Vaccinate cases (mOS) (cancer patients; [6]) | Non-vaccinate cases (mOS) (cancer patients; [7]) | Correlation between immune responses and OS: Negative (mOS) (cancer patients) | Correlation between immune responses and OS: Positive (mOS) (cancer patients) | HR (cancer patients; [8]) | Vaccinate cases (mOS) (cancer patients; [9]) | Non-vaccinate cases (mOS) (cancer patients; [10]) | Post vaccination IgG Median (FIU) [1, 11] | Pre-vaccination IgG Median (FIU) [1, 11] | Pre-vaccination IgG Negative (number of patients) [1, 11] | Pre-vaccination IgG Positive (number of patients) [1, 11] | Post vaccination IgG: number of (positive) patients among vaccinated [1, 11] | Pre-vaccination IgG Negative patients [1] | Pre-vaccination IgG Positive patients [1] | Post vaccination IgG: (positive) patients [1] | Pre-vaccination IgG Median (FIU) [1, 12] | other results
DYLRSVLEDF (listed as Homo sapiens) [Lck-488] | 0.9 | 1,103(12.0) M | 447(12.0) M | 1.0 | 872(10.7) M | 374(10.1) M | 9.3 months | 24.7 months | 1.0 | 452(17.9) M | 173(19.7) M | 11,894 FIU | 60 FIU | 192 | 874 | 452(313) | 441 | 2,147 | 1103(635) | 60 FIU | Post vaccination IgG Median (FIU) [1, 13]: 11,594 FIU; Correlation between immune responses and OS: Negative (mOS) [1]: 7.8 months; Correlation between immune responses and OS: Positive (mOS) [1]: 20.6 months
DYSARWNEI (listed as Homo sapiens) [SART2-93] | 0.9 | 1,137(12.3) M | 413(11.5) M | 1.0 | 906(10.7) M | 340(10.2) M | 17.3 months | 24.7 months | 1.0 | 467(19.0) M | 158(17.6) M | 8,633 FIU | 64 FIU | 141 | 925 | 467(183) | 340 | 2,248 | 1137(362) | 66 FIU | positive rate of patients showing ≥10 FIU, pre-vaccination peptide-specific IgG ([1]; 2,588 patients, pre-vaccination): 87%; Post vaccination IgG Median (FIU) [1, 13]: 3,435 FIU; Correlation between immune responses and OS: Negative (mOS) [1]: 12.3 months; Correlation between immune responses and OS: Positive (mOS) [1]: 21.7 months
DYVREHKDNI (listed as Homo sapiens) [EGFR-800] | 0.8 | 390(14.3) M | 1,160(11.1) M | 0.8 | 299(13.1) M | 947(9.6) M | 17.1 months | 27.5 months | 0.9 | 176(21.2) M | 449(21.2) M | 746 FIU | 32 FIU | 431 | 635 | 176(79) | 1,046 | 1,542 | 390(156) | 30 FIU | median OS of non-vaccinated cases (cancer patients; [14]): 9.6 months; median OS of vaccinated cases (cancer patients; [14]): 13.1 months; median OS of vaccinated cases (cancer patients; all 2,588 cases, PPV containing the peptide): 14.3 months; median OS of non-vaccinated cases (cancer patients; all 2,588 cases, PPV not containing the peptide): 11.1 months; Post vaccination IgG Median (FIU) [1, 13]: 715 FIU; Correlation between immune responses and OS: Negative (mOS) [1]: 12.4 months; Correlation between immune responses and OS: Positive (mOS) [1]: 24.3 months
GIHKQKEKSR (listed as Homo sapiens) [PAP-248] | 1.0 | 147(11.4) M | 1,067(11.1) M | 0.8 | 124(10.1) M | 845(9.9) M | 13 months | 21.3 months | 1.1 | 64(15.5) M | 443(17.6) M | 1,981 FIU | 38 FIU | 543 | 523 | 64(31) | 1,302 | 1,286 | 147(62) | 37 FIU | median OS of patients with the peptide vs patients without it (cancer patients; 1,066 patients with <64% neutrophil and ≥26% lymphocyte): shorter; Post vaccination IgG Median (FIU) [1, 13]: 2,136 FIU; Correlation between immune responses and OS: Negative (mOS) [1]: 9.9 months; Correlation between immune responses and OS: Positive (mOS) [1]: 21.1 months
HYRKWIKDTI (listed as Homo sapiens) [PSA-248] | 0.9 | 283(13.8) M | 1,267(11.6) M | 0.9 | 230(13.0) M | 1016(10.2) M | 9.6 months | 27.4 months | 0.9 | 107(20.4) M | 518(17.9) M | 18,191 FIU | 47 FIU | 231 | 835 | 107(81) | 553 | 2,035 | 283(200) | 48 FIU | Post vaccination IgG Median (FIU) [1, 13]: 13,165 FIU; Correlation between immune responses and OS: Negative (mOS) [1]: 7.0 months; Correlation between immune responses and OS: Positive (mOS) [1]: 20.2 months
